Results reported in US10709743B2, “Pharmaceutical wound healing composition” (Council of Scientific and Industrial Research, priority 2015, dated 2020).
Several values for one entry are separate records, joined by “and”; a condition that tells them apart may be missing. Equal values may be shown once.

Experiments:
Wister rats (Male) [1] = experiment: Incision wound model, wound size measurement; assay type: in vivo; parameters: unit not given here; settings: individual animals SR NO 1-6, applied once a day
Wister rats (Male) [2] = experiment: Incision wound model, wound size measurement; assay type: in vivo; parameters: unit not given here; settings: average of six animals
Method: The animals were housed in a standard individual metal cages and room was maintained at 22±1° C. with an alternating 12 h light-dark cycle. Food and water were provided ad libitum. All the experiments on animals were conducted after obtaining permission from Institutional Animal Ethical Committee of the Institute.
Animals were divided into two groups (six animals each).
All animals of two groups were anesthetized with an aesthetic ether, and a paravertebral long incision of 4.4 cm length were made through the skin and cutaneous muscle at a distance about 1.5 cm from the middle on right side of the depilated back.
All groups (A and B) of animals received sufficient amount of formulation applied externally (as depicted in table No. 2). All the test formulations were applied once a day for 10 days starting from the day of incision. Wound-healing property was evaluated by wound length and wound closure time.
Every alternative days wound size contraction was measured. By placing transparent blotting paper carefully on the wounded part of rats marking were done by permanent marker and size of reduction in wound noted.

[3] = cited from earlier work

Substance	wound size (Wister rats (Male) [1]; DAY 2)	wound size (Wister rats (Male) [1]; DAY 10)	wound size (Wister rats (Male) [1]; DAY-4)	wound size (Wister rats (Male) [1]; DAY-6)	wound size (Wister rats (Male) [1]; DAY-8)	wound size AVG (Wister rats (Male) [2]; DAY 2)	wound size AVG (Wister rats (Male) [2]; DAY 10)	wound size AVG (Wister rats (Male) [2]; DAY-4)	wound size AVG (Wister rats (Male) [2]; DAY-6)	wound size AVG (Wister rats (Male) [2]; DAY-8)	scavenging of hydroxyl, superoxide and DPPH radicals ([3]; ESR and ultraviolet spectrophotometry)	antioxidative activity on the peroxidation of linoleic acid ([3]; linoleic acid system)
Sericin [Group C]	26 (2×) and 24 and 25 and 30 (2×)	9 and 6 (3×) and 7 and 5	21 and 23 (2×) and 27 and 28 and 24	20 and 22 (2×) and 25 and 27 and 24	18 and 16 (3×) and 17 and 15	26.83	6.5	24.33	23.33	16.33		
silk sericin											strong scavenging capacity	potent antioxidative activity
